{
  "source": "paper PMC10630888",
  "about": "“Nuclear ERK1/2 signaling potentiation enhances neuroprotection and cognition via Importinα1/KPNA2” (EMBO Molecular Medicine, 2023)",
  "key": {"[1]": {"tested_on": "ribosomal protein S6 (Ser 235/236) phosphorylation", "assay": "pS6 (Ser235/236) immunofluorescence in acute striatal slices with glutamate", "assay_type": "cell-based, mouse", "details": "peptide 50 μM 1 h, individual slices", "method": "Adult C57Bl/6 mice were decapitated after cervical dislocation and brain slices were freshly prepared as previously described in Orellana et al ([2012]) and Papale et al ([2016]). Briefly, the brains were rapidly removed from the skull, submerged in ice‐cold sucrose‐based dissecting solution, and sliced into 200 μm‐thick slices using a vibratome. […] After a rapid fixation in 4% PFA, slices were rinsed and cryoprotected overnight at 4°C in 30% sucrose solution. On the following day, slices were cut into 18 μm‐thick slices using a cryostat (Leica CM1850), mounted onto SuperFrost Plus slides (Thermo Scientific) and stored at −20°C until processing for immunohistochemistry or immunofluorescence.\nImmunofluorescence was performed as described in Papale et al ([2016]). Briefly, 1 h after blocking in 5% normal goat serum, slices were incubated overnight at 4°C with the following primary antibodies: anti‐phospho (Ser10)‐acetylated (Lys14) histone H3 (1:1,000, Millipore), anti‐phospho‐S6 ribosomal protein (Ser235/236) (1:200, Cell Signaling Technology) anti‐phospho‐S6 ribosomal protein (Ser240/244) (1:200, Cell Signaling), cleaved caspase‐3 (1:200, Cell Signaling Technology), anti‐mutant Huntingtin (1:100, Developmental Studies Hybridoma Bank, University of Iowa, #MW8), and NeuN (1:1,000, Millipore). Corresponding secondary antibodies (Alexa Fluor 546 conjugated anti‐mouse (1:200, Thermo Fisher Scientific), Alexa Fluor 488 conjugated anti‐rabbit (1:500, Thermo Fisher Scientific) and Pacific Blue goat anti‐mouse (1:200, Thermo Fisher Scientific) were incubated at room temperature for 1 h. Sections stained for mutant Huntingtin were incubated with DAPI for 20 min. Sections were subsequently mounted with fluorescent mounting medium (DAKO). Single and double‐labeled images ([…]) were obtained at 40× magnification from the striatum using a laser scanning confocal microscope (Leica SP2) equipped with the corresponding lasers and appropriate filter sets to avoid the crosstalk between the fluorochromes.\nIn ex‐vivo and in‐vivo immunofluorescence experiments, the number of p‐S6 or p‐AcH3 immunoreactive neurons among NeuN‐positive neurons was counted in 2–3 consecutive striatal sections per mouse in four fields per section. Caspase 3‐positive cells were quantified among NeuN‐positive neurons in each slide and expressed as percentage (ratio between caspase‐3‐positive cells and total NeuN‐positive neurons) for each field acquired through the slide. The number of cells showing mutant Huntingtin inclusions were expressed as a percentage of mutant Huntingtin‐positive cells among DAPI‐positive cells."}, "[2]": {"assay": "RB5 brain levels by HPLC-MS/MS", "assay_type": "in vivo, mouse", "set-up": "Brain levels measured with mass spectrometry: unit not given here", "details": "single 20 mg/kg i.p.; for Brain levels measured with mass spectrometry: mouse brain homogenate, individual mice, 20 mg/kg", "method": "RB5 was quantified in the mouse brain using HPLC‐MS/MS. Brain samples were homogenized with 1:4 w/v of 50% acetonitrile 5% TFA in water with a homogenizer ultra‐turrax and then centrifuged at 13,000 rpm for 10 min at 4°C. The supernatant was collected and centrifuged at 15,871 g for 2 min at 4°C. The supernatant was then collected on ice, extracted using Sep‐Pak cartridges C18, lyophilized and kept at 4°C before HPLC‐MS/MS analysis. Immediately before the analysis, samples were suspended in 100 μl of 0.1% HCOOH in water/8% acetonitrile in auto‐sampler vials.\nHPLC‐MS/MS analysis was performed using a system consisting of an Agilent 1200 series HPLC system coupled with an Agilent 6410 Triple Quadruple mass spectrometer. Mass Hunter Workstation v. B.01.03 software was used for data collection and processing (Agilent Technologies, Santa Clara, California, US). The quantification of brain levels of RB5 and Scramble peptides was carried out using an internal standard curve with peptide concentrations ranging from 0.1 to 4 ng/μl. RB5 and Scramble peptides, and the internal standard were separated at room temperature by injecting 10 μl of extracted sample onto a Jupiter C4 300 A analytical column, 2 × 150 mm, 5 μm particle size (Phenomenex, CA). Gradient elution was used for chromatographic separation, using 0.1% formic acid in water as solvent A and acetonitrile as solvent B at a flow rate of 200 μl/min. The elution started with 92% of eluent A and 8% of eluent B maintained for 1 min, followed by a 4 min linear gradient to 75% of eluent B, a 1 min linear gradient to 99% of eluent B, a 2 min isocratic elution, and a 0.5 min linear gradient to 8% of eluent B, which was maintained for 9.5 min to equilibrate the column. The samples were maintained at 4°C in the autosampler.\nPeptides were then detected on an Agilent 6410 QQQ mass spectrometer using the following parameters: positive ion mode, 5 kV capillary voltage, cone voltage 500 V, gas flow rate 8 l/min at 350°C, nebulizer gas pressure 40 PSI at 350°C, well time 75 msec and Q1 and Q3 set to unit resolution."}, "[3]": {"tested_on": "procedural learning (nose poke responses)", "assay": "9-hole operant boxes, FR1 nose poke, zQ175 mice with RB5", "assay_type": "in vivo, mouse", "details": "for FR1 nose poke, AUC analysis: 20 mg/kg i.p. 1 h before session; for Nose poke responses (FR1): 9 days of treatment, 20 mg/kg i.p.", "method": "Operant testing was conducted in 16 9‐hole operant boxes as previously described (Yhnell et al, [2016a]). Each operant box contains a horizontal array of nine holes with infrared beams localized to the front of each hole to detect nose pokes. A peristaltic pump delivers liquid reinforcement (strawberry milk) into a magazine at the front of the box.\nA week before starting the training, mice underwent water restriction for 18 h/day and were kept under this regimen throughout the experimental procedures. Mice were taught to nose poke on a simple fixed ratio (FR1) schedule of reinforcement: to obtain reward, mice were required to respond to a stimulus light in the central hole via a single nose poke. zQ175 mice were trained daily on this program for 20‐min sessions for 10 days (training phase). Once trained, animals were subdivided into four groups and injected with RB5 or scramble (20 mg/kg, i.p.) peptides 1 h before being tested on the FR1 schedule for the other 9 days. At the end of the behavioral tests, mice were perfused with 4% PFA, and brains were processed for IHC or IF."}},
  "note": "“And” between values parts separate entries of the source, which are not always exact repeats. Equal entries are not always repeated.",
  "data": [
    {"substance": "SCR: ineffective Scramble version of RB5 containing a TAT sequence (GRKKRRQRRRPPRVGPGVPEGVGVAVFGVKEPGQTGDVGPVGE) [reference compound]", "values": [
      {"measurement": "pS6 (Ser235/236) immunoreactive neurons among NeuN-positive neurons", "setting": "[1]; then glutamate 100 μM 10 min", "result": "26.24 and 21.87 and 18.27 and 25.45 and 28.87 and 26.8562 and 29.1865 and 24.4192 and 22.75 and 21.51 and 19.87 and 20.18"},
      {"measurement": "pS6 (Ser235/236) immunoreactive neurons among NeuN-positive neurons", "setting": "[1]; then vehicle 10 min", "result": "12.33 and 13.90 and 11.33 and 13.09 and 9.47 and 11.58 and 11.02 and 10.86 and 14.51"},
      {"measurement": "Brain levels measured with mass spectrometry", "setting": "[2]; 1 h", "result": "6.434 and 8.14"},
      {"measurement": "FR1 nose poke, AUC analysis", "setting": "[3]; WT females, treatment day 1", "result": 426},
      {"measurement": "FR1 nose poke, AUC analysis", "setting": "[3]; WT females, treatment day 2", "result": 494},
      {"measurement": "FR1 nose poke, AUC analysis", "setting": "[3]; WT females, treatment day 3", "result": 529},
      {"measurement": "FR1 nose poke, AUC analysis", "setting": "[3]; WT females, treatment day 4", "result": 551},
      {"measurement": "FR1 nose poke, AUC analysis", "setting": "[3]; WT females, treatment day 5", "result": 606},
      {"measurement": "FR1 nose poke, AUC analysis", "setting": "[3]; WT females, treatment day 6", "result": 632},
      {"measurement": "FR1 nose poke, AUC analysis", "setting": "[3]; WT females, treatment day 7", "result": 637},
      {"measurement": "FR1 nose poke, AUC analysis", "setting": "[3]; WT females, treatment day 8", "result": 652},
      {"measurement": "FR1 nose poke, AUC analysis", "setting": "[3]; WT females, treatment day 9", "result": 625},
      {"measurement": "FR1 nose poke, AUC analysis", "setting": "[3]; zQ175 females, treatment day 1", "result": 79.44},
      {"measurement": "FR1 nose poke, AUC analysis", "setting": "[3]; zQ175 females, treatment day 2", "result": 88.63},
      {"measurement": "FR1 nose poke, AUC analysis", "setting": "[3]; zQ175 females, treatment day 3", "result": 81.25},
      {"measurement": "FR1 nose poke, AUC analysis", "setting": "[3]; zQ175 females, treatment day 4", "result": 82.51},
      {"measurement": "FR1 nose poke, AUC analysis", "setting": "[3]; zQ175 females, treatment day 5", "result": 86.56},
      {"measurement": "FR1 nose poke, AUC analysis", "setting": "[3]; zQ175 females, treatment day 6", "result": 92.15},
      {"measurement": "FR1 nose poke, AUC analysis", "setting": "[3]; zQ175 females, treatment day 7", "result": 90.83},
      {"measurement": "FR1 nose poke, AUC analysis", "setting": "[3]; zQ175 females, treatment day 8", "result": 92.99},
      {"measurement": "FR1 nose poke, AUC analysis", "setting": "[3]; zQ175 females, treatment day 9", "result": 83.24}
    ]},
    {"substance": "GRKKRRQRRRPPQGGGGGEPRRTEGVGPGVPGEVEMVKGQPFDV [RB5, six D-amino acids, acetylated N-terminus]", "values": [
      {"measurement": "pS6 (Ser235/236) immunoreactive neurons among NeuN-positive neurons", "setting": "[1]; then glutamate 100 μM 10 min", "result": "blunted and 17.3997 and 19.6901 and 16.4767 and 13.6077 and 18.6740 and 17.1380 and 11.1928 and 12.0526 and 14.5710 and 10.2402 and 9.5439 and 15.5782 and 12.6217 and 14.7339"},
      {"measurement": "pS6 (Ser235/236) immunoreactive neurons among NeuN-positive neurons", "setting": "[1]; then vehicle 10 min", "result": "13.7412 and 14.9907 and 12.2371 and 13.4483 and 9.59 and 9.671 and 8.798 and 18.1241 and 17.7385 and 16.8553 and 14.4173 and 14.7976 and 16.1024 and 14.3475"},
      {"measurement": "Time RB5 is detectable in brain postinjection (mass spectrometry)", "setting": "[2]; mice", "result": "up to 6 h"},
      {"measurement": "Brain levels measured with mass spectrometry", "setting": "[2]; 1 h", "result": "92.2252 and 89.7022 and 75.321 and 38.8889 and 66.5288"},
      {"measurement": "Brain levels measured with mass spectrometry", "setting": "[2]; 3 h", "result": "119.5 and 39.8058 and 101.408 and 83.7545 and 96.934"},
      {"measurement": "Brain levels measured with mass spectrometry", "setting": "[2]; 6 h", "result": "57.0702 and 47.9263 and 56.5714 and 68.7679 and 72.8353"},
      {"measurement": "Brain levels measured with mass spectrometry", "setting": "[2]; 12 h", "result": "8.439 and 16.5056 and 9.465 and 6.558"},
      {"measurement": "Nose poke responses (FR1)", "setting": "[3]; WT and zQ175 females", "result": "significantly enhanced responses"},
      {"measurement": "FR1 nose poke, AUC analysis", "setting": "[3]; WT females, treatment day 1", "result": 696.2},
      {"measurement": "FR1 nose poke, AUC analysis", "setting": "[3]; WT females, treatment day 2", "result": 784.67},
      {"measurement": "FR1 nose poke, AUC analysis", "setting": "[3]; WT females, treatment day 3", "result": 771.56},
      {"measurement": "FR1 nose poke, AUC analysis", "setting": "[3]; WT females, treatment day 4", "result": 796.53},
      {"measurement": "FR1 nose poke, AUC analysis", "setting": "[3]; WT females, treatment day 5", "result": 786.86},
      {"measurement": "FR1 nose poke, AUC analysis", "setting": "[3]; WT females, treatment day 6", "result": 819.62},
      {"measurement": "FR1 nose poke, AUC analysis", "setting": "[3]; WT females, treatment day 7", "result": 786.91},
      {"measurement": "FR1 nose poke, AUC analysis", "setting": "[3]; WT females, treatment day 8", "result": 844.4},
      {"measurement": "FR1 nose poke, AUC analysis", "setting": "[3]; WT females, treatment day 9", "result": 832.09},
      {"measurement": "FR1 nose poke, AUC analysis", "setting": "[3]; zQ175 females, treatment day 1", "result": 293.69},
      {"measurement": "FR1 nose poke, AUC analysis", "setting": "[3]; zQ175 females, treatment day 2", "result": 300.15},
      {"measurement": "FR1 nose poke, AUC analysis", "setting": "[3]; zQ175 females, treatment day 3", "result": 373.09},
      {"measurement": "FR1 nose poke, AUC analysis", "setting": "[3]; zQ175 females, treatment day 4", "result": 374.4},
      {"measurement": "FR1 nose poke, AUC analysis", "setting": "[3]; zQ175 females, treatment day 5", "result": 384.76},
      {"measurement": "FR1 nose poke, AUC analysis", "setting": "[3]; zQ175 females, treatment day 6", "result": 413.69},
      {"measurement": "FR1 nose poke, AUC analysis", "setting": "[3]; zQ175 females, treatment day 7", "result": 454.91},
      {"measurement": "FR1 nose poke, AUC analysis", "setting": "[3]; zQ175 females, treatment day 8", "result": 338.07},
      {"measurement": "FR1 nose poke, AUC analysis", "setting": "[3]; zQ175 females, treatment day 9", "result": 338.07},
      {"measurement": "Nose poke responses (FR1)", "setting": "[3]; zQ175 males", "result": "did not alter responses"}
    ]}
  ]
}
